Results: publication PMC8301776, “New Hybrid Compounds Combining Fragments of Usnic Acid and Monoterpenoids for Effective Tyrosyl-DNA Phosphodiesterase 1 Inhibition” (Biomolecules, 2021)
Entries after “also recorded” stand apart in the source; their conditions may differ.

What was measured:
HEK293A TDP1-/- cells = assay: Topotecan cytotoxicity alone or in combination, colorimetric test, HEK293A TDP1-/- clones C6, G6, F7; format: cell-based, human; conditions: for effect on cell growth in combination with Tpc, compared to Tpc (in words): HEK293A Tdp1-/- cells
Source text: TDP1 knockout HEK293A clones were obtained in the same way as the previously described TDP1 knockout HEK293FT clones. Briefly, two 20-nt protospacer sequences flanking the first protein coding exon of human TDP1 gene were selected using https://www.benchling.com/ (accessed date 1 November 2020). Oligonucleotides were cloned in plasmid pSpCas9(BB)-2A-GFP (PX458). pSpCas9(BB)-2A-GFP (PX458) was a gift from Feng Zhang (Addgene plasmid # 48138; http://n2t.net/addgene:48138; RRID: Addgene_48138). HEK293A cells were transfected with plasmids pX458-TDP1-gRNA1 and pX458-TDP1-gRNA2 (0.25 µg of each) using Lipofectamine 3000 Reagent (Thermofisher Scientific, Waltham, MA, USA). Growth medium contained DMEM/F12 (Thermofisher Scientific, Waltham, MA, USA) 1:1, 10% FBS (Thermofisher Scientific, Waltham, MA, USA), 100 U/mL penicillin–streptomycin (Thermofisher Scientific, Waltham, MA, USA), and 1 × GlutaMAX (Thermofisher Scientific, Waltham, MA, USA). […] Single cell clones grew for two weeks, and genome DNA was analyzed on CRISPR/Cas9-mediated deletions in TDP1 gene by PCR amplification of target region with primers: TDP1-scF 5′-[…]-3′ and TDP1-scR 5′-[…]-3′. […]
Cytotoxicity of the compounds was examined against human cell lines HEK293A (human embryonic kidney)—WT and TDP1-deficient (Tdp1-/-), and HeLa (cervical cancer) using an EZ4U colorimetric tests (Biomedica, Vienna, Austria) or xCELLigence DP Real-Time Cell Analyzer (ACEA Biosciences, Santa Clara, CA, USA). […] After formation of a 30–50% monolayer, tested compounds were added to the medium, and the cell culture was monitored for 3 days. […]
In our previous work, the cytotoxic effect of Tpc and the TDP1 inhibitors, monoterpene 3-carene derivatives, was established; both were measured separately and jointly using a panel of HEK293FT TDP1 knockout isogenic clones. […] No cleavage activity was detected in the clones’ C6, G6, and F7 cell extracts in contrast to control WT and purified TDP1. […]

Krebs 2 ascites tumors = test system: Krebs 2 ascites tumors; parameters: method as in PMID 33871444; conditions: Krebs 2 ascites tumors in mice; cited from earlier work
TDP1 = target: T1, TDP1 (Homo sapiens, UniProt Q9NUW8); assay: Real-time fluorescence detection of TDP1 activity (FAM/BHQ1 oligonucleotide biosensor); format: biochemical; conditions: as repeated in Table S1; read-out: IC50
T1 construct: made in house; host or cells: E. coli

HeLa cells [1] = assay: Intrinsic cytotoxicity, EZ4U colorimetric test, HeLa; format: cell-based, human; conditions: Figure 6
Description: (§1) Cytotoxicity of the compounds was examined against human cell lines HEK293A (human embryonic kidney)—WT and TDP1-deficient (Tdp1-/-), and HeLa (cervical cancer) using an EZ4U colorimetric tests (Biomedica, Vienna, Austria) or xCELLigence DP Real-Time Cell Analyzer (ACEA Biosciences, Santa Clara, CA, USA). Cell lines were obtained from the Russian Cell Culture Collection (RCCC) Institute of Cytology RAS (St. Petersburg, Russia). The cells were grown in DMEM/F12 medium (Thermo Fisher Scientific, Waltham, MA, USA), with 1× GlutaMAX (Thermo Fisher Scientific, Waltham, MA, USA), 50 IU/mL penicillin, and 50 μg/mL streptomycin (Thermo Fisher Scientific, Waltham, MA, USA), and in the presence of 10% fetal bovine serum (Biolot, Saint-Petersburg, Russia) in 5% CO2 atmosphere. Control cells were grown in the presence of 1% DMSO where indicated. After formation of a 30–50% monolayer, tested compounds were added to the medium, and the cell culture was monitored for 3 days. […] The measurements were carried out in three parallel experiments.
(§2) The intrinsic cytotoxicity of the four lead compounds (11a–d) was examined using a colorimetric test (Figure 6).

HEK293A WT cells [2] = assay: Topotecan cytotoxicity in combination with TDP1 inhibitors, colorimetric test, HEK293A WT; format: cell-based, human
Description: as §1
There was no difference between WT and the mutant cells.

HEK293A WT cells [3] = assay: xCELLigence impedance-based real-time cell growth assay, alone or with Tpc; parameters: species or system human; conditions: for effect on cell growth with Tpc, compared to Tpc: 50 nM Tpc + 5, 10, 20 or 40 µM compound; for toxicity of compound alone (in words): 40 µM compound
Description: as §1
This stimulation was also confirmed for HEK293A WT cells using the xCELLigence DP Real-Time Cell Analyzer impedance-based assay (Figure 9). […] The stimulation effect depends on the concentration of compounds 11a and 11c (Figure 9B,C).
(A). Cell growth of HEK293A cells in the control wells without compounds added (black), with 50 nM Tpc (red), 40 µM 11a (dark green), or 40 µ M 11c (violet). (B,C) Cell growth of HEK293A cells with 50 nM Tpc only (red) and in combination with 5 µM (green), 10 µM (dark blue), 20 µM (pink), or 40 µM (blue) 11a (B) or 11c (C).

HeLa cells [4] = assay: Topotecan cytotoxicity in combination with TDP1 inhibitors, colorimetric test, HeLa; format: cell-based, human
Description: as §1
The combination index (CI) values were determined for different concentrations of Tpc and the enamines 11a–d at 2 and 5 μM. […] The CI values were calculated with the CompuSyn version 1.0 software. The CI plot at different fraction-affected (Fa) was determined for Tpc (0.3, 0.5, 1, 2, and 4 μM) and the Tdp1 inhibitors (2 and 5 μM).

HEK293A cells = assay: Intrinsic cytotoxicity, EZ4U colorimetric test, HEK293A; format: cell-based, human; conditions: Figure 6
Description: as §1, §2

Lewis lung carcinoma = conditions: mice with Lewis lung carcinoma; various administration schedules; cited from earlier work

T1 sequence (Q9NUW8 whole entry): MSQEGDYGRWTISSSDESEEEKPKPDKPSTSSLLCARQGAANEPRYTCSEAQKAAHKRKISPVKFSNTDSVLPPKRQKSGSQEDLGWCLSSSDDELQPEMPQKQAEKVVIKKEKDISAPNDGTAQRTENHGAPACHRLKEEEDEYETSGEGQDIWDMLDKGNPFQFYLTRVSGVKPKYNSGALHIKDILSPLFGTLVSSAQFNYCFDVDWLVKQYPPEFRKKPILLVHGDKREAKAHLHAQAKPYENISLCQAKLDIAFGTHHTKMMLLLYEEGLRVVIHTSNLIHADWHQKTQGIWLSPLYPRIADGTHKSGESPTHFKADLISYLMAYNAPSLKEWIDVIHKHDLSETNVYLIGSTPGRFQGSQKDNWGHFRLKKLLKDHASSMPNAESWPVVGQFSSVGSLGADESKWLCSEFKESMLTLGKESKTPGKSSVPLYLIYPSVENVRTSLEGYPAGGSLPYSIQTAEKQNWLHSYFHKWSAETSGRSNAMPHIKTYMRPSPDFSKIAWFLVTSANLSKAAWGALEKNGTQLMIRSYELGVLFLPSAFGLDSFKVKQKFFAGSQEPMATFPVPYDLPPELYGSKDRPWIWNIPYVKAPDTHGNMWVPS

| Compound | sensitivity of TDP1-/- cells to Tpc compared to WT (HEK293A TDP1-/- cells; HEK293A clones C6, G6, F7 vs WT, colorimetric test) | antitumor effect, given separately (Krebs 2 ascites tumors) | effect on cell growth in combination with Tpc, compared to Tpc (in words) (HEK293A TDP1-/- cells) | IC50 (TDP1) | intrinsic cytotoxicity (in words) (HeLa cells [1]) | effect on Tpc cytotoxicity / cell growth, compared to Tpc (in words) (HEK293A WT cells [2]) | effect on cell growth with Tpc, compared to Tpc (HEK293A WT cells [3]) | toxicity of compound alone (in words) (HEK293A WT cells [3]) | effect on Tpc cytotoxicity (in words) (HeLa cells [4]) | intrinsic cytotoxicity (in words) (HEK293A cells) | antimetastatic activity (Lewis lung carcinoma) |
| --- | --- | --- | --- | --- | --- | --- | --- | --- | --- | --- | --- |
| CC[C@@]1(O)C(=O)OCc2c1cc1n(c2=O)Cc2cc3c(CN(C)C)c(O)ccc3nc2-1 [Tpc, topotecan, reference compound] | more sensitive to Tpc compared to WT | antitumor effect |  |  |  |  |  |  |  |  |  |
| CC(=O)c1c(O)c(C)c(O)c2c1OC1=CC(=O)/C(=C(/C)NCC[C@@H](C)CCC=C(C)C)C(=O)[C@@]12C [11a, (2R,4E)-10-Acetyl-4-(1-{[(3S)-3,7-dimethyloct-6-en-1-yl]amino}ethylidene)-11,13-dihydroxy-2,12-dimethyl-8-oxatricyclo[7.4.0.0^2,7]trideca-1(13),6,9,11-tetraene-3,5-dione] |  |  | stimulation of cell growth | 400 nM | non-cytotoxic | reduced it; also recorded: stimulation of cell growth; also recorded: stimulated cell growth | stimulated cell growth | modestly toxic | enhanced topotecan’s cytotoxicity; also recorded: synergistic effect; also recorded: enhanced Tpc cytotoxicity | non-cytotoxic |  |
| CC(=O)c1c(O)c(C)c(O)c2c1OC1=CC(=O)/C(=C(/C)NCCC3=CC[C@H]4C[C@@H]3C4(C)C)C(=O)[C@@]12C [11c, (2R,4E)-10-Acetyl-4-[1-({2-[(1R,5S)-6,6-dimethylbicyclo[3.1.1]hept-2-en-2-yl]ethyl}amino)ethylidene]-11,13-dihydroxy-2,12-dimethyl-8-oxatricyclo[7.4.0.0^2,7]trideca-1(13),6,9,11-tetraene-3,5-dione] |  |  | stimulation of cell growth | 320 nM | non-cytotoxic | reduced it; also recorded: stimulation of cell growth; also recorded: stimulated cell growth | stimulated cell growth | non-toxic | enhanced topotecan’s cytotoxicity; also recorded: synergistic effect; also recorded: enhanced Tpc cytotoxicity | non-cytotoxic |  |
| CC(=O)c1c(O)c(C)c(O)c2c1OC1=CC(=O)/C(=C(/C)NCCCc3cc(C(C)(C)C)c(O)c(C(C)(C)C)c3)C(=O)[C@@]12C [5b] |  |  |  |  |  |  |  |  |  |  | strong antimetastatic activity |
